How the values were obtained:
p38α = molecular target: T1, p38α (Homo sapiens, UniProt Q16539); assay: In vitro enzyme assay, p38α isoform; format: biochemical; conditions: read-out: IC50 against p38α
T1 construct: c-myc (N); 6His (N); made in house; host or cells: E. coli (PET vectors)
Experimental: The ability of compounds of the invention to inhibit the enzyme p38 kinase was assessed. Activity of particular test compounds against each of the p38α and p38β isoforms of the enzyme was determined.
Human recombinant MKK6 (GenBank Accesion Number G1209672) was isolated from Image clone 45578 (Genomics, 1996, 33, 151) and utilised to produce protein in the form of a GST fusion protein in a pGEX vector using analogous procedures to those disclosed by J. Han et al., Journal of Biological Chemistry, 1996, 271, 2886-2891, p38α (GenBank Accession Number G529039) and p38β (GenBank Accession Number G1469305) were isolated by PCR amplification of human lymphoblastoid cDNA (GenBank Accession Number GM1416) and human foetal brain cDNA [synthesised from mRNA (Clontech, catalogue no. 6525-1) using a Gibco superscript cDNA synthesis kit] respectively using oligonucleotides designed for the 5′ and 3′ ends of the human p38α and p38β genes using analogous procedures to those described by J. Han et al., Biochimica et Biophysica Acta, 1995, 1265, 224-227 and Y. Jiang et al. Journal of Biological Chemistry 1996, 271, 17920-17926.
Both p38 protein isoforms were expressed in e coli in PET vectors. Human recombinant p38α and p38β isoforms were produced as 5′ c-myc, 6His tagged proteins. Both MKK6 and the p38 proteins were purified using standard protocols: the GST MKK6 was purified using a glutathione sepharose column and the p38 proteins were purified using nickel chelate columns.
The p38 enzymes were activated prior to use by incubation with MKK6 for 3 hours at 30° C. The unactivated coli-expressed MKK6 retained sufficient activity to fully activate both isoforms of p38. The activation incubate comprised p38α (10 μl of 10 mg/ml) or p38β (10 μl of 5 mg/ml) together with MKK6 (1 μl of 1 mg/ml), ‘Kinase buffer’ [100 μl; pH 7.4 buffer comprising Tris (50 mM), EGTA (0.1 mM), sodium orthovanadate (0.1 mM) and β-mercaptoethanol (0.1%)] and MgATP (30 μl of 50 mM Mg(OCOCH3)2 and 0.5 mM ATP). This produced enough activated p38 enzyme for 3 Microtiter plates.
Test compounds were solubilised in DMSO and 10 μl of a 1:10 diluted sample in ‘Kinase Buffer’ was added to a well in a Microtiter plate. For single dose testing, the compounds were tested at 10 μM. ‘Kinase Assay Mix’ [30 μl; comprising Myelin Basic Protein (Gibco BRL cat. no. 1322B-010; 1 ml of a 3.33 mg/ml solution in water), activated p38 enzyme (50 μl) and ‘Kinase Buffer’ (2 ml)] was then added followed by ‘Labelled ATP’ [10 μl; comprising 50 μM ATP, 0.1 μCi ^33P ATP (Amersham International cat. no. BF1000) and 50 mM Mg(OCOCH3)2]. The plates were incubated at room temperature with gentle agitation. Plates containing p38α were incubated for 90 min and plates containing p38β were incubated for 45 min. Incubation was stopped by the addition of 50 μl of 20% trichloroacetic acid (TCA). The precipitated protein was phosphorylated by p38 kinase and test compounds were assessed for their ability to inhibit this phosphorylation. The plates were filtered using a Canberra Packard Unifilter and washed with 2% TCA, dried overnight and counted on a Top Count scintillation counter.
(§1) Test compounds were tested initially at a single dose and active compounds were retested to allow IC50 values to be determined.

[1] = test system: TNFα production by human peripheral blood mononuclear cells; assay: PBMC test: TNFα production after lipopolysaccharide stimulation; format: cell-based; conditions: LPS-stimulated TNFα production
Experimental: The ability of compounds of this invention to inhibit TNFα production was assessed by using human peripheral blood mononuclear cells which synthesise and secrete TNFα when stimulated with lipopolysaccharide.
Peripheral blood mononuclear cells (PBMC) were isolated from heparinised (10 units/ml heparin) human blood by density centrifugation (Lymphoprep™; Nycomed). Mononuclear cells were resuspended in culture medium [RPMI 1640 medium (Gibco) supplemented with 50 units/ml penicillin, 50 μg/ml streptomycin, 2 mM glutamine and 1% heat-inactivated human AB serum (Sigma H-1513)]. Compounds were solubilised in DMSO at a concentration of 50 mM, diluted 1:100 in culture medium and subsequently serial dilutions were made in culture medium containing 1% DMSO. PBMCs (2.4×10^5 cells in 160 μl culture medium) were incubated with 20 μl of varying concentrations of test compound (triplicate cultures) or 20 μl culture medium containing 1% DMSO (control wells) for 30 minutes at 37° C. in a humidified (5%CO2/95% air) incubator (Falcon 3072; 96 well flat-bottom tissue culture plates). 20 μl lipopolysaccharide [LPS E.Coli 0111:B4 (Sigma L-4130), final concentration 10 μg/ml] solubilised in culture medium was added to appropriate 30 wells. 20 μl culture medium was added to “medium alone” control wells. Six “LPS alone” and four “medium alone” controls were included on each 96 well plate. Varying concentrations of a known TNFα inhibitor were included in each test, i.e. an inhibitor of the PDE Type IV enzyme (for example see Semmler, J. Wachtel. H and Endres. S., Int. J. Immunopharmac. (1993), 15(3), 409-413) or an inhibitor of proTNFα convertase (for example, see McGeehan, G. M. et al. Nature (1994) 370, 558-561). Plates were incubated for 7 hours at 37° C. (humidified incubator) after which 100 μl of the supernatant was removed from each well and stored at −70° C. (96 well round-bottom plates; Corning 25850). TNFα levels were determined in each sample using a human TNFα ELISA (see WO92/10190 and Current Protocols in Molecular Biology, vol 2 by Frederick M. Ausbel et al., John Wiley and Sons Inc.). [formula]

p38 kinase = assay: In vitro enzyme assay, p38 kinase (isoform not specified, or p38α and/or p38β); format: biochemical, human; conditions: result in words
Experimental: The ability of compounds of the invention to inhibit the enzyme p38 kinase was assessed. Activity of particular test compounds against each of the p38α and p38β isoforms of the enzyme was determined. […]
Test compounds were solubilised in DMSO and 10 μl of a 1:10 diluted sample in ‘Kinase Buffer’ was added to a well in a Microtiter plate. […] The precipitated protein was phosphorylated by p38 kinase and test compounds were assessed for their ability to inhibit this phosphorylation. The plates were filtered using a Canberra Packard Unifilter and washed with 2% TCA, dried overnight and counted on a Top Count scintillation counter.
as §1

T1 sequence (Q16539 whole entry, canonical isoform): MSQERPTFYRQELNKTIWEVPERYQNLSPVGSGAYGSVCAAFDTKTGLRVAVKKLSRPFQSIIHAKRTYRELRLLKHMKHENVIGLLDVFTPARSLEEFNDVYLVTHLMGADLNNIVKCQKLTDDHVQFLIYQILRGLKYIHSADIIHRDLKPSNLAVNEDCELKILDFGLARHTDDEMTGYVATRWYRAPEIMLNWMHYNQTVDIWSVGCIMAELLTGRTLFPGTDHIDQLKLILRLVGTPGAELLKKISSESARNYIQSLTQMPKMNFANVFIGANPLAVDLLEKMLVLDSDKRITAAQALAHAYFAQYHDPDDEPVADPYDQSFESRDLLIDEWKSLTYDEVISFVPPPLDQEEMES

Compound | melting point | IC50 (p38α) | IC50 [1] | p38 kinase inhibitory activity (p38 kinase)
Cc1ccc(NC(=O)c2ccc(C#N)cc2)cc1NC(=O)c1ccc(O)cc1 [Example 4, N-[5-(4-Cyanobenzamido)-2-methylphenyl]-4-hydroxybenzamide] | 297 to 299 °C | – | – | –
COc1ccc(C(=O)Nc2cc(NC(=O)c3cccc(Br)c3)ccc2C)cc1OC [Example 6, N-[5-(3-bromobenzamido)-2-methylphenyl]-3,4-dimethoxybenzamide] | 136 to 138 °C | – | – | –
COc1ccc(C(=O)Nc2cc(NC(=O)c3cccc(N(C)C)c3)ccc2C)cc1OC [Example 9, Compound No. 7, N-[5-(3-dimethylaminobenzamido)-2-methylphenyl]-3,4-dimethoxybenzamide] | – | ~200 nM | ~7000 nM | –
Cc1ccc(NC(=O)CCCC2CCCCC2)cc1NC(=O)c1ccc(O)cc1 [N-[5-(4-Cyclohexylbutyrylamino)-2-methylphenyl]-4-hydroxybenzamide] | 159 to 160 °C | – | – | –
Cc1ccc(NC(=O)CCC2CCCCC2)cc1NC(=O)c1ccc(O)cc1 [N-[5-(3-cyclohexylpropionamido)-2-methylphenyl]-4-hydroxybenzamide] | – | ~400 nM | ~7000 nM | –
Cc1ccc(NC(=O)c2ccccc2)cc1NC(=O)c1cccc(CN2CCN(C)CC2)c1 [Example 9, Compound No. 51, N-(5-benzamido-2-methylphenyl)-3-(4-methylpiperazin-1-yl)methylbenzamide] | – | ~700 nM | ~3000 nM | –
COc1ccc(C(=O)Nc2cc(NC(=O)c3cccc(NC(C)=O)c3)ccc2C)cc1OC [Example 33, N-[5-(3-acetamidobenzamido)-2-methylphenyl]-3,4-dimethoxybenzamide] | 187 to 188 °C | – | – | –
COc1ccc(C(=O)Nc2cc(NC(=O)c3cccc(N)c3)ccc2C)cc1OC [Example 13, N-[5-(3-aminobenzamido)-2-methylphenyl]-3,4-dimethoxybenzamide] | 179 to 180 °C | ~700 nM | ~7000 nM | –
Cc1ccc(NC(=O)c2cccc(N3CCOCC3)c2)cc1NC(=O)c1cccc(N2CCOCC2)c1 [Example 9, Compound No. 50, N-[2-methyl-5-(3-morpholinobenzamido)phenyl]-3-morpholinobenzamide] | – | ~40 nM | ~1500 nM | –
Cc1ccc(NC(=O)c2cccc(N(C)C)c2)cc1NC(=O)c1ccccc1O [Example 30, N-[5-(3-dimethylaminobenzamido)-2-methylphenyl]-2-hydroxybenzamide] | 234 to 238 °C | – | – | –
COc1ccc(C(=O)Nc2cc(NC(=O)c3cccc(O)c3)ccc2C)cc1OC [Example 11, N-[5-(3-hydroxybenzamido)-2-methylphenyl]-3,4-dimethoxybenzamide] | 182 to 183 °C | – | – | –
COc1ccc(C(=O)Nc2cc(NC(=O)c3ccc(O)cc3)ccc2C)cc1OC [Example 10, N-[5-(4-hydroxybenzamido)-2-methylphenyl]-3,4-dimethoxybenzamide] | 258 to 259 °C | – | – | –
Cc1ccc(NC(=O)c2c(F)cccc2Cl)cc1NC(=O)c1ccc(O)cc1 [Example 9, Compound No. 12] | – | ~1700 nM | ~22000 nM | –
Cc1ccc(NC(=O)CCC2CCCC2)cc1NC(=O)c1ccc(O)cc1 [N-[5-(3-cyclopentylpropionamido)-2-methylphenyl]-4-hydroxybenzamide] | – | ~6000 nM | – | –
Cc1ccc(NC(=O)c2cccc(N(C)C)c2)cc1NC(=O)c1ccc(O)cc1 [N-[5-(3-Dimethylaminobenzamido)-2-methylphenyl]-4-hydroxybenzamide] | – | – | – | possess p38 kinase inhibitory activity
